Consider 18 compounds from patent publication US20180148418A1, “AMIDO-SUBSTITUTED CYCLOHEXANE DERIVATIVES” (Bayer Pharma Aktiengesellschaft, priority 2015, published 2018).

Each structure is given as a SMILES string. pIC50: −log10 of the molar value.

Test [1] relates to wildtype Wnt signaling cascade. The experiment in a line: HEK293 TOP assay (Super TopFlash luciferase reporter, Wnt-3a stimulated). The format is cell-based. Conditions: Homo sapiens, HEK293, 16 h, HEK293 TOP reporter cells, Wnt3a at EC50, 16 hours. A digest of the protocol: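 HEK293 cells stably carrying Super TopFlash (TOP) run in parallel with FOP cells, 10000/well plated 24 h ahead, stimulated with recombinant human Wnt-3a. Compounds tested 50 μM to 15 nM in 3.16-fold steps in CAFTY buffer pH 7.4 with 2 mM Ca^2+ and 0.01% BSA; luciferase read-out.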

The subject of test [2] is HEK293 cells cotransfected with the FOP control vector. The experiment in a line: HEK293 FOP assay (control reporter with non-functional TCF elements). The class given is cell-based. Conditions: Homo sapiens, 16 hours. A digest of the protocol:
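Stable HEK293 line carrying FOP control reporter (randomized non-functional TCF sites, with pcDNA3), Geneticin-selected, plated 24 h before assay. Stimulated with recombinant human Wnt-3a (2500-5 ng/ml) and compounds 50 μM–15 nM (3.16-fold steps) in CAFTY buffer pH 7.4 with 2 mM Ca2+, 0.01% BSA, run parallel to TOP line.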

Another test addresses T1, TNKS2 (Homo sapiens, UniProt Q9H2K2).
T1 construct: purchased BPS Bioscience, San Diego, USA 80572 (TNKS2 Histone Ribosylation Assay Kit)
T1 sequence (Q9H2K2 1-1166): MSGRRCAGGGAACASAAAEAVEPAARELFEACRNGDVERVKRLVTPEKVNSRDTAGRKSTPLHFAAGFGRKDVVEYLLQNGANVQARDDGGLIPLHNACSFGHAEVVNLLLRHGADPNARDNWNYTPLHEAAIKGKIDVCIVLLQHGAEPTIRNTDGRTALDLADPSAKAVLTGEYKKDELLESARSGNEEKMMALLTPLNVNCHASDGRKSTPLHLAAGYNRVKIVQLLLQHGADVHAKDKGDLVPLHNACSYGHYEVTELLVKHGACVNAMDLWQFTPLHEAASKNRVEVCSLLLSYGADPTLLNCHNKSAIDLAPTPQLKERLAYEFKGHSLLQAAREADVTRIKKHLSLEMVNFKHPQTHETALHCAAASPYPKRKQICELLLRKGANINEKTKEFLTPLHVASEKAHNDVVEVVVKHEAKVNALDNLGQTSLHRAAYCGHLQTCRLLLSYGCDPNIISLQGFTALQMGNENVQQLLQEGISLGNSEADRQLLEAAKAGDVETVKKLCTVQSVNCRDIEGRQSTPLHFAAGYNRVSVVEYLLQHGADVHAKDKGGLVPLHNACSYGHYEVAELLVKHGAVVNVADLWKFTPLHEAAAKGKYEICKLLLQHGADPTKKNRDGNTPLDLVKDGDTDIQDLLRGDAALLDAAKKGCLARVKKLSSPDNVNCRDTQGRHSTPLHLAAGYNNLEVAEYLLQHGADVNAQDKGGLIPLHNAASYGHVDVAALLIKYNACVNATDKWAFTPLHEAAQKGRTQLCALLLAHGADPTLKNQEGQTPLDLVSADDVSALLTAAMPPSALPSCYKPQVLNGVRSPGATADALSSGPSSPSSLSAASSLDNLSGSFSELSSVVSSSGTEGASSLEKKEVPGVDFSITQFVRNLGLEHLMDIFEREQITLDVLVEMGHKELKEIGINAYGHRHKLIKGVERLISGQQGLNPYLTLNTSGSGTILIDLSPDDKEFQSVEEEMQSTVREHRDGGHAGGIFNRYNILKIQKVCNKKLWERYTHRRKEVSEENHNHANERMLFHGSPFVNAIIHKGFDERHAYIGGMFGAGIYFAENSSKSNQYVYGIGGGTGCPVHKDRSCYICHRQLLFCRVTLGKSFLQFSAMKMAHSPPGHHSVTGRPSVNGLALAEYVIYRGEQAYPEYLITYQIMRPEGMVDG
The experiment in a line: TNKS2 Assay B (auto-parsylation, [3H]-NAD+ SPA). The format is biochemical. The conditions noted are these: 6 nM TNKS2, auto-parsylation, over night at room temperature.

In the case of `CN(C)c1ccc2ncc(C(=O)N[C@H]3CC[C@H](C(=O)Nc4ccc(F)cc4Cl)CC3)n2n1` [Example 52, N-{trans-4-[(2-chloro-4-fluorophenyl)carbamoyl]cyclohexyl}-6-(dimethylamino)imidazo[1,2-b]pyridazine-3-carboxamide], the pIC50 (usually −log10 of the IC50, conventionally taken in molar units) in test [1] was 6.82; in test [2], 4.40; on TNKS2 it was 7.96.

With `CNc1ccc2ncc(C(=O)N[C@H]3CC[C@H](C(=O)Nc4ccc(F)cc4Cl)CC3)n2n1` [Example 53, N-{trans-4-[(2-chloro-4-fluorophenyl)carbamoyl]cyclohexyl}-6-(methylamino)imidazo[1,2-b]pyridazine-3-carboxamide], the pIC50 in test [1] is 6.40; in test [2], ≤ 4.30; on TNKS2, 7.33.

`Cc1c(C(C)O)cnc2c(C(=O)N[C@H]3CC[C@H](C(=O)Nc4ccc(F)cc4Cl)CC3)cnn12` (stereo partly drawn) [Example 58, N-{trans-4-[(2-chloro-4-fluorophenyl)carbamoyl]cyclohexyl}-6-(1-hydroxyethyl)-7-methylpyrazolo[1,5-a]pyrimidine-3-carboxamide]: the pIC50 in test [1] was 5.96; in test [2], ≤ 4.30; at TNKS2, 6.15.

For `Nc1nn2cccnc2c1C(=O)N[C@H]1CC[C@H](C(=O)Nc2ccc(F)cc2Cl)CC1` [Example 59, 2-amino-N-{trans-4-[(2-chloro-4-fluorophenyl)carbamoyl]cyclohexyl}pyrazolo[1,5-a]pyrimidine-3-carboxamide], the results for the pIC50 (in test [1]; in test [2]; against TNKS2) were 5.89, ≤ 4.30 and 6.30, respectively.

As to `Cc1cc(C(C)(C)C)n2ncc(C(=O)N[C@H]3CC[C@H](C(=O)Nc4ccc(F)cc4Cl)CC3)c2n1` [Example 60, 7-tert-butyl-N-{trans-4-[(2-chloro-4-fluorophenyl)carbamoyl]cyclohexyl}-5-methylpyrazolo[1,5-a]pyrimidine-3-carboxamide], the pIC50 is 6.21 in test [1], 4.62 in test [2] and 5.66 against TNKS2.

As to `Cc1cnc2c(C(=O)N[C@H]3CC[C@H](C(=O)Nc4ccc(F)cc4Cl)CC3)cnn2c1` [Example 61, N-{trans-4-[(2-chloro-4-fluorophenyl)carbamoyl]cyclohexyl}-6-methylpyrazolo[1,5-a]pyrimidine-3-carboxamide], the pIC50 in test [1] was 7.68; in test [2], ≤ 4.30; on TNKS2, 7.47.

As to `Cc1cc(C2CC2)nc2c(C(=O)N[C@H]3CC[C@H](C(=O)Nc4ccc(F)cc4Cl)CC3)cnn12` [Example 62, N-{trans-4-[(2-chloro-4-fluorophenyl)carbamoyl]cyclohexyl}-5-cyclopropyl-7-methylpyrazolo[1,5-a]pyrimidine-3-carboxamide], the pIC50 in test [1] is 4.92; in test [2], ≤ 4.30; at TNKS2, 5.70.

For `CNC(=O)c1nc[nH]c1C(=O)N[C@H]1CC[C@H](C(=O)Nc2cc(C)c(F)cc2Cl)CC1` [Example 63, N^5-{trans-4-[(2-chloro-4-fluoro-5-methylphenyl)carbamoyl]cyclohexyl}-N^4-methyl-1H-imidazole-4,5-dicarboxamide], the pIC50 was 7.27 in test [1], ≤ 4.30 in test [2] and 7.51 on TNKS2.

Take `Cc1cc(NC(=O)[C@H]2CC[C@H](NC(=O)c3[nH]cnc3C(=O)NCC3CCCO3)CC2)c(Cl)cc1F` (stereo partly drawn) [Example 64, N^5-{trans-4-[(2-chloro-4-fluoro-5-methylphenyl)carbamoyl]cyclohexyl}-N^4-(tetrahydrofuran-2-ylmethyl)-1H-imidazole-4,5-dicarboxamide]: the pIC50 in test [1] is 6.13; in test [2], 4.57; on TNKS2, 7.31.

Take `COCC(C)NC(=O)c1nc[nH]c1C(=O)N[C@H]1CC[C@H](C(=O)Nc2c(F)cc(F)cc2Cl)CC1` (stereo partly drawn) [Example 65, N^5-{trans-4-[(2-chloro-4,6-difluorophenyl)carbamoyl]cyclohexyl}-N^4-(1-methoxypropan-2-yl)-1H-imidazole-4,5-dicarboxamide]: the negative-log IC50 (pIC50) is 6.64 in test [1], ≤ 4.30 in test [2] and 6.72 against TNKS2.

In the case of `COC[C@H](C)NC(=O)c1nc[nH]c1C(=O)N[C@H]1CC[C@H](C(=O)Nc2c(F)cc(F)cc2Cl)CC1` [Example 66, N^5-{trans-4-[(2-chloro-4,6-difluorophenyl)carbamoyl]cyclohexyl}-N^4-[(2S)-1-methoxypropan-2-yl]-1H-imidazole-4,5-dicarboxamide], the results for the pIC50 (in test [1]; in test [2]; on TNKS2) were 6.60, ≤ 4.30 and 6.55, respectively.

Take `COC[C@@H](C)NC(=O)c1nc[nH]c1C(=O)N[C@H]1CC[C@H](C(=O)Nc2c(F)cc(F)cc2Cl)CC1` [Example 67, N^5-{trans-4-[(2-chloro-4,6-difluorophenyl)carbamoyl]cyclohexyl}-N^4-[(2R)-1-methoxypropan-2-yl]-1H-imidazole-4,5-dicarboxamide]: the negative-log IC50 (pIC50) was 6.66 in test [1], ≤ 4.30 in test [2] and 6.55 against TNKS2.

For `COC(C)CNC(=O)c1nc[nH]c1C(=O)N[C@H]1CC[C@H](C(=O)Nc2c(F)cc(F)cc2Cl)CC1` (stereo partly drawn) [Example 68, N^5-{trans-4-[(2-chloro-4,6-difluorophenyl)carbamoyl]cyclohexyl}-N^4-(2-methoxypropyl)-1H-imidazole-4,5-dicarboxamide], the pIC50 in test [1] was 6.92; in test [2], 4.48; against TNKS2 it was 7.10.

For `O=C(NCC1CCCO1)c1nc[nH]c1C(=O)N[C@H]1CC[C@H](C(=O)Nc2c(F)cc(F)cc2Cl)CC1` (stereo partly drawn) [Example 69, N^5-{trans-4-[(2-chloro-4,6-difluorophenyl)carbamoyl]cyclohexyl}-N^4-(tetrahydrofuran-2-ylmethyl)-1H-imidazole-4,5-dicarboxamide], the results for the pIC50 (in test [1]; in test [2]; against TNKS2) were 6.77, ≤ 4.30 and 7.24, respectively.

For `O=C(NC[C@H]1CCCO1)c1nc[nH]c1C(=O)N[C@H]1CC[C@H](C(=O)Nc2c(F)cc(F)cc2Cl)CC1` [Example 70, N^5-{trans-4-[(2-chloro-4,6-difluorophenyl)carbamoyl]cyclohexyl}-N^4-[(2R)-tetrahydrofuran-2-ylmethyl]-1H-imidazole-4,5-dicarboxamide], the figures for the pIC50 (in test [1]; in test [2]; against TNKS2) were 6.66, 4.54 and 7.12, respectively.

Regarding `O=C(N[C@H]1CC[C@H](C(=O)Nc2ccc(F)cc2Cl)CC1)c1[nH]cnc1C(=O)N1CC(F)(F)C1` [Example 72, N-{trans-4-[(2-chloro-4-fluorophenyl)carbamoyl]cyclohexyl}-4-[(3,3-difluoroazetidin-1-yl)carbonyl]-1H-imidazole-5-carboxamide], the values for the pIC50 (in test [1]; in test [2]; against TNKS2) were 6.85, ≤ 4.30 and 7.59, respectively.

In the case of `COC(C)(C)CNC(=O)c1nc[nH]c1C(=O)N[C@H]1CC[C@H](C(=O)Nc2ccc(F)cc2Cl)CC1` [Example 73, N^5-{trans-4-[(2-chloro-4-fluorophenyl)carbamoyl]cyclohexyl}-N^4-(2-methoxy-2-methylpropyl)-1H-imidazole-4,5-dicarboxamide], the pIC50 was 6.40 in test [1], 4.72 in test [2] and 6.72 against TNKS2.

Take `O=C(NCCC1CC1)c1nc[nH]c1C(=O)N[C@H]1CC[C@H](C(=O)Nc2ccc(F)cc2Cl)CC1` [Example 74, N^5-{trans-4-[(2-chloro-4-fluorophenyl)carbamoyl]cyclohexyl}-N^4-(2-cyclopropylethyl)-1H-imidazole-4,5-dicarboxamide]: the results for the pIC50 (in test [1]; in test [2]; against TNKS2) were 6.72, 4.49 and 7.14, respectively.
